The values below come from patent US20100286092A1, “BETA-LACTAMASE INHIBITORS” (priority 2007, published 2010).

Details in all cases: in the presence of a fixed amount (8 μg/mL) of Ceftazidime; CAMHB, 16-20 hours at 37° C.
Assay [1] deals with K. pneumoniae expressing the Class A Extended Spectrum Beta-Lactamase (ESBL) CTX-M-15. In kind it is cell-based. From the text: (§1) To determine the ability of test compounds to potentiate the inhibition of the growth of bacterial strains producing beta-lactamase enzymes, classic cell based screening assays were employed. Four bacteria strains producing beta-lactamase enzymes were used: K. pneumoniae expressing the Class A Extended Spectrum Beta-Lactamase (ESBL) CTX-M-15, E. coli expressing the Class A ESBL SHV-5, E. cloacae expressing the Class C P99+, and K. pneumoniae expressing the Class A carbapenemase KPC-2. In order to evaluate the ability of test compounds to inhibit beta-lactamase activity, Applicants used a modification of the broth microdilution assay. The assay was conducted in Cation Adjusted Mueller Hinton Broth (CAMHB, BD #212322, BD Diagnostic Systems, Sparks, Md.). Bacteria strains were grown for 3-5 hours in CAMBH broth. All four strains were grown in presence of 50 μg/mL ampicillin to ensure resistance is maintained. In the meantime, test compounds were diluted in DMSO to a 0.1 mg/mL stock. The compounds were added to a microtiter plate and were diluted in 2-fold serial dilutions in CAMHB in a final concentration range of 8 μg/mL to 0.015 μg/ml. An overlay of CAMHB containing a cephalosporin was added to the compounds at a final static concentration of 8 μg/ml. […] Each of these compound plates are made in quadruplicate, one for each bacteria strain. In addition to the titration of test compounds the MICs of a panel of cephalosporins is also tested to ensure the strains are behaving consistently from test to test. Once the test compound and cephalosporin are added the plates can be inoculated. Inocula are conducted according to CLSI broth microdilution method. After inoculation the plates are incubated for 16-20 hours at 37° C. then the Minimal Inhibitory Concentration (MIC) of the test compound is determined visually.
(§2) Using the methodology described above, examples of the current invention were evaluated for their ability to inhibit the growth of β-lactamase producing bacteria in the presence of a β-lactam antibiotic. […] NT=Not Tested.

The test system of assay [2] is K. pneumoniae expressing the Class A carbapenemase KPC-2.
From the text: as §1, §2

Assay [3] relates to E. cloacae expressing the Class C P99+. In kind it is cell-based.
From the text: as §1, §2

Each structure is given as a SMILES string.

Consider `O=C(Cc1cc(O)ccc1O)N[C@@H](Cc1cccc(C(=O)O)c1O)B(O)O` [Example 18, (1R)-1-(2-(2,5-dihydroxyphenyl)acetylamino)-2-(2-hydroxy-3-carboxyphenyl)ethyl-1-boronic acid], for which the “MIC of example compound, K. pneumoniae CTX-M-15 + 8 μg/mL CAZ” value (“MIC … K. pneumoniae CTX-M-15 + 8 μg/mL CAZ” below) in assay [1] was “C (C represents an MIC of <1 μg/mL)”.
For `CCCCCCC(=O)N[C@@H](Cc1cccc(C(=O)O)c1O)B(O)O` [Example 24, (1R)-1-(heptanoylamino)-2-(2-hydroxy-3-carboxyphenyl)ethyl-1-boronic acid], the “MIC … K. pneumoniae CTX-M-15 + 8 μg/mL CAZ” value in assay [1] is given as “C (C represents an MIC of <1 μg/mL)”. Further, the “MIC of example compound, K. pneumoniae KPC-2 + 8 μg/mL CAZ” value (“MIC … K. pneumoniae KPC-2 + 8 μg/mL CAZ” below) in assay [2] is given as “C (C represents an MIC of <1 μg/mL)”.
Consider `COc1ccc(C(=O)N[C@@H](Cc2cccc(C(=O)O)c2O)B(O)O)cc1` [Example 33, (1R)-1-(4-Methoxybenzoyl)-amino-1-(3-carboxy-2-hydroxy)benzyl-methylboronic acid], for which the “MIC … K. pneumoniae KPC-2 + 8 μg/mL CAZ” value in assay [2] is listed as “C (C represents an MIC of <1 μg/mL)”.
As to `O=C(N[C@@H](Cc1cccc(C(=O)O)c1O)B(O)O)c1ccc(O)cc1` [Example 36, (1R)-1-(4-Hydroxybenzoyl)-amino-1-(3-carboxy-2-hydroxy)benzyl-methylboronic acid], the “MIC … K. pneumoniae CTX-M-15 + 8 μg/mL CAZ” value in assay [1] was “C (C represents an MIC of <1 μg/mL)”. Also, the “MIC of example compound, E. cloacae P99 AmpC + 8 μg/mL CAZ” value (“MIC … E. cloacae P99 AmpC + 8 μg/mL CAZ” for short) in assay [3] is “C (C represents an MIC of <1 μg/mL)”. Further, the “MIC … K. pneumoniae KPC-2 + 8 μg/mL CAZ” value in assay [2] was “C (C represents an MIC of <1 μg/mL)”.
In the case of `O=C(N[C@@H](Cc1cccc(C(=O)O)c1O)B(O)O)c1ccc(F)cc1` [Example 26, (1R)-1-(4-Fluorobenzoylamino)-(3-carboxy-2-hydroxy)benzyl-methylboronic acid], the “MIC … K. pneumoniae CTX-M-15 + 8 μg/mL CAZ” value in assay [1] is recorded as “C (C represents an MIC of <1 μg/mL)”. In addition, the “MIC … E. cloacae P99 AmpC + 8 μg/mL CAZ” value in assay [3] is listed as “C (C represents an MIC of <1 μg/mL)”. Further, the “MIC … K. pneumoniae KPC-2 + 8 μg/mL CAZ” value in assay [2] is given as “C (C represents an MIC of <1 μg/mL)”.
Regarding `O=C(Cc1cccc(O)c1)N[C@@H](Cc1cccc(C(=O)O)c1O)B(O)O` [Example 3, (1R)-1-(3-hydroxy-phenyl)acetylamino-1-(3-carboxy-2-hydroxy)benzyl-methyl boronic acid], in assay [1], the “MIC … K. pneumoniae CTX-M-15 + 8 μg/mL CAZ” value is “C (C represents an MIC of <1 μg/mL)”. Moreover, in assay [2], the “MIC … K. pneumoniae KPC-2 + 8 μg/mL CAZ” value is recorded as “C (C represents an MIC of <1 μg/mL)”.
On to `Cc1ccccc1C(=O)N[C@@H](Cc1cccc(C(=O)O)c1O)B(O)O` [Example 30, (1R)-1-(2-methylbenzoylamino)-2-(2-hydroxy-3-carboxyphenyl)ethyl-1-boronic acid], for which the “MIC … K. pneumoniae KPC-2 + 8 μg/mL CAZ” value in assay [2] was “C (C represents an MIC of <1 μg/mL)”.
`CC(C)(C)CC(=O)N[C@@H](Cc1cccc(C(=O)O)c1O)B(O)O` [Example 25, (1R)-1-(3,3-Dimethyl-butyrylamino)-(3-carboxy-2-hydroxy)benzyl-methylboronic acid]: the “MIC … K. pneumoniae CTX-M-15 + 8 μg/mL CAZ” value in assay [1] is on record as “C (C represents an MIC of <1 μg/mL)”. The “MIC … K. pneumoniae KPC-2 + 8 μg/mL CAZ” value in assay [2] is “C (C represents an MIC of <1 μg/mL)”.
Consider `O=C(CN1C(=O)c2ccccc2C1=O)N[C@@H](Cc1cccc(C(=O)O)c1O)B(O)O` [Example 45, (1R)-1-(2-(1,3-dioxoisoindolin-2-yl)acetylamino)-2-(2-hydroxy-3-carboxyphenyl)ethyl-1-boronic acid], for which, in assay [2], the “MIC … K. pneumoniae KPC-2 + 8 μg/mL CAZ” value is “C (C represents an MIC of <1 μg/mL)”.
For the molecule `CC(C)C(=O)N[C@@H](Cc1cccc(C(=O)O)c1O)B(O)O` [Example 14, (1R)-1-Isobutyrylamino-1-(3-carboxy-2-hydroxy)benzyl-methylboronic acid], the “MIC … K. pneumoniae CTX-M-15 + 8 μg/mL CAZ” value in assay [1] is reported as “C (C represents an MIC of <1 μg/mL)”. Further, the “MIC … E. cloacae P99 AmpC + 8 μg/mL CAZ” value in assay [3] was “C (C represents an MIC of <1 μg/mL)”. Moreover, the “MIC … K. pneumoniae KPC-2 + 8 μg/mL CAZ” value in assay [2] was “C (C represents an MIC of <1 μg/mL)”.
For the molecule `O=C(Cn1cccn1)N[C@@H](Cc1cccc(C(=O)O)c1O)B(O)O` [Example 40, (1R)-1-(Pyrazol-1-yl-acetylamino)-2-(2-hydroxy-3-carboxyphenyl)ethyl-1-boronic acid], in assay [1], the “MIC … K. pneumoniae CTX-M-15 + 8 μg/mL CAZ” value is “C (C represents an MIC of <1 μg/mL)”. Further, in assay [2], the “MIC … K. pneumoniae KPC-2 + 8 μg/mL CAZ” value was “C (C represents an MIC of <1 μg/mL)”.
Turning to `NC(=O)COc1cccc(CC(=O)N[C@@H](Cc2cccc(C(=O)O)c2O)B(O)O)c1` [Example 8, (1R)-1-[(3-carbamoylmethoxy)-phenyl]-acetylamino-(3-carboxy-2-hydroxy)benzyl-methylboronic acid], the “MIC … K. pneumoniae CTX-M-15 + 8 μg/mL CAZ” value in assay [1] is “C (C represents an MIC of <1 μg/mL)”. For the same molecule, the “MIC … K. pneumoniae KPC-2 + 8 μg/mL CAZ” value in assay [2] is on record as “C (C represents an MIC of <1 μg/mL)”.
Consider `O=C(COCc1ccccc1)N[C@@H](Cc1cccc(C(=O)O)c1O)B(O)O` [Example 22, (1R)-1-(2-benzyloxyacetylamino)-2-(2-hydroxy-3-carboxyphenyl)ethyl-1-boronic acid], for which the “MIC … K. pneumoniae CTX-M-15 + 8 μg/mL CAZ” value in assay [1] is on record as “C (C represents an MIC of <1 μg/mL)”. Moreover, the “MIC … K. pneumoniae KPC-2 + 8 μg/mL CAZ” value in assay [2] is “C (C represents an MIC of <1 μg/mL)”.
For `O=C(Cc1cccs1)N[C@@H](Cc1ccc(C(=O)O)cc1O)B(O)O` [Example 2, (1R)-1-(2-thiophene-2-yl-acetylamino)-2-(2-hydroxy-4-carboxyphenyl)ethyl-1-boronic acid], the “MIC … E. cloacae P99 AmpC + 8 μg/mL CAZ” value in assay [3] was “A (A represents an MIC>8 μg/mL)”.
Regarding `O=C(N[C@@H](Cc1cccc(C(=O)O)c1O)B(O)O)c1ccccc1O` [Example 35, (1R)-1-(2-hydroxybenzoylamino)-2-(2-hydroxy-3-carboxyphenyl)ethyl-1-boronic acid], in assay [2], the “MIC … K. pneumoniae KPC-2 + 8 μg/mL CAZ” value is on record as “C (C represents an MIC of <1 μg/mL)”.
Turning to `O=C(O)c1cccc(C[C@H](NC(=O)c2cccc3ccccc23)B(O)O)c1O` [Example 27, (1R)-1-(1-naphthoylamino)-2-(2-hydroxy-3-carboxyphenyl)ethyl-1-boronic acid], the “MIC … K. pneumoniae KPC-2 + 8 μg/mL CAZ” value in assay [2] is listed as “C (C represents an MIC of <1 μg/mL)”.
The same measure, in the same setting: the value for `O=C(N[C@@H](Cc1cccc(C(=O)O)c1O)B(O)O)c1ccc(Cl)cc1` [Example 32, (1R)-1-(4-Chloro-benzoyl)-amino-1-(3-carboxy-2-hydroxy)benzyl-methylboronic acid] was “C (C represents an MIC of <1 μg/mL)”.
Regarding `CC(=O)N[C@@H](Cc1cccc(C(=O)O)c1O)B(O)O` [Example 6, (1R)-1-(2-acetylamino)-2-(2-hydroxy-3-carboxyphenyl)ethyl-1-boronic acid], the “MIC … K. pneumoniae CTX-M-15 + 8 μg/mL CAZ” value in assay [1] is on record as “C (C represents an MIC of <1 μg/mL)”. Besides, in assay [2], the “MIC … K. pneumoniae KPC-2 + 8 μg/mL CAZ” value is listed as “C (C represents an MIC of <1 μg/mL)”.
On to `N[C@H](C(=O)N[C@@H](Cc1cccc(C(=O)O)c1O)B(O)O)c1ccccc1.O=CO` [Example 12, (1R,2′S)-1-(2-amino-2-phenylacetylamino)-2-(2-hydroxy-3-carboxyphenyl)ethyl-1-boronic acid formate salt], for which, in assay [1], the “MIC … K. pneumoniae CTX-M-15 + 8 μg/mL CAZ” value is recorded as “C (C represents an MIC of <1 μg/mL)”. Further, the “MIC … K. pneumoniae KPC-2 + 8 μg/mL CAZ” value in assay [2] is given as “C (C represents an MIC of <1 μg/mL)”.
With `O=C(N[C@@H](Cc1cccc(C(=O)O)c1O)B(O)O)c1ccc(Cl)nc1` [Example 31, (1R)-1-(6-Chloro-pyridine-3-carbonyl)-amino-1-(3-carboxy-2-hydroxy)benzyl-methylboronic acid], the “MIC … K. pneumoniae CTX-M-15 + 8 μg/mL CAZ” value in assay [1] is “C (C represents an MIC of <1 μg/mL)”. The “MIC … K. pneumoniae KPC-2 + 8 μg/mL CAZ” value in assay [2] was “C (C represents an MIC of <1 μg/mL)”.
Consider `NCc1cccc(C(=O)N[C@@H](Cc2cccc(C(=O)O)c2O)B(O)O)c1.O=CO` [Example 42, (1R)-1-(3-aminomethyl)-benzoylamino-1-(3-carboxy-2-hydroxy)benzyl-methyl boronic acid formate], for which, in assay [3], the “MIC … E. cloacae P99 AmpC + 8 μg/mL CAZ” value is listed as “C (C represents an MIC of <1 μg/mL)”. The “MIC … K. pneumoniae KPC-2 + 8 μg/mL CAZ” value in assay [2] is “C (C represents an MIC of <1 μg/mL)”.
For the molecule `O=C(N[C@@H](Cc1cccc(C(=O)O)c1O)B(O)O)c1cccc(O)c1` [Example 28, (1R)-1-(3-hydroxybenzoylamino)-2-(2-hydroxy-3-carboxyphenyl)ethyl-1-boronic acid], in assay [1], the “MIC … K. pneumoniae CTX-M-15 + 8 μg/mL CAZ” value is reported as “C (C represents an MIC of <1 μg/mL)”. Further, the “MIC … K. pneumoniae KPC-2 + 8 μg/mL CAZ” value in assay [2] was “C (C represents an MIC of <1 μg/mL)”.
